Assays:
[1] = test system: Magnaporthe grisea; Anamorph: Pyricularia oryzae; format: in vivo; settings: 100 ppm, 1 DP (1 Day Protectant), rice
Phakopsora pachyrhizi = experiment: Fungicidal activity: Asian Soybean Rust (PHAKPA); format: in vivo; settings: 25 ppm, 1DP (1 Day Protectant)
Method: Evaluation of Fungicidal Activity: Asian Soybean Rust (Phakopsora pachyrhizi; Bayer Code PHAKPA)
Technical grades of materials were dissolved in acetone, which were then mixed with nine volumes of water containing 0.011% Tween 20. The fungicide solutions were applied onto soybean seedlings using an automated booth sprayer to run-off. All sprayed plants were allowed to air dry prior to further handling.
Soybean plants (variety Williams 82) were grown in soil-less Metro mix, with one plant per pot. Two weeks old seedlings were used for testing. Plants were inoculated either 3 days prior to or 1 day after fungicide treatments. Plants were incubated for 24 h in a dark dew room at 22° C. and 100% relative humidity then transferred to a growth room at 23° C. for disease to develop. Disease severity was assessed on the sprayed leaves.

Rhyncosporium secalis = experiment: Fungicidal activity: Barley Scald (RHYNSE); format: in vivo; settings: 100 ppm, 1 DP (1 Day Protectant)
Method: Technical grades of materials were dissolved in acetone, which were then mixed with nine volumes of water containing 110 ppm Triton X-100. The fungicide solutions were applied onto wheat seedlings using an automated booth sprayer to run-off. All sprayed plants were allowed to air dry prior to further handling. All fungicides were evaluated using the aforementioned method for their activity vs. all target diseases, unless stated otherwise. Wheat leaf blotch and brown rust activity were also evaluated using track spray applications, in which case the fungicides were formulated as EC formulations, containing 0.1% Trycol 5941 in the spray solutions. Wheat plants (variety Yuma) were grown from seed in a greenhouse in 50% mineral soil/50% soil-less Metro mix until the first leaf was fully emerged, with 7-10 seedlings per pot. These plants were inoculated with an aqueous spore suspension of Septoria tritici either prior to or after fungicide treatments. After inoculation the plants were kept in 100% relative humidity (one day in a dark dew chamber followed by two to three days in a lighted dew chamber at 20° C.) to permit spores to germinate and infect the leaf. The plants were then transferred to a greenhouse set at 20° C. for disease to develop. When disease symptoms were fully expressed on the 1st leaves of untreated plants, infection levels were assessed on a scale of 0 to 100 percent disease severity. Percent disease control was calculated using the ratio of disease severity on treated plants relative to untreated plants. Evaluation of Fungicidal Activity: Barley Scald (Rhyncosporium secalis; Bayer Code […]) Barley seedlings (variety Harrington) were propagated in soil-less Metro mix, with each pot having 8 to 12 plants, and used in the test when first leaf was fully emerged. Test plants were inoculated by an aqueous spore suspension of Rhyncosporium secalis 24 hr after fungicide treatments. After inoculation the plants were kept in a dew room at 20° C. with 100% relative humidity for 48 hr. The plants were then transferred to a greenhouse set at 20° C. for disease to develop. Fungicide formulation, application and disease assessment on the sprayed leaves followed the procedures as described in the Example A.

Cercospora beticola = experiment: Fungicidal activity: Leaf Spot of Sugar Beets (CERCBE); format: in vivo; settings: 100 ppm, 1 DP (1 Day Protectant), sugar beet
Method: Technical grades of materials were dissolved in acetone, which were then mixed with nine volumes of water containing 110 ppm Triton X-100. The fungicide solutions were applied onto wheat seedlings using an automated booth sprayer to run-off. All sprayed plants were allowed to air dry prior to further handling. All fungicides were evaluated using the aforementioned method for their activity vs. all target diseases, unless stated otherwise. Wheat leaf blotch and brown rust activity were also evaluated using track spray applications, in which case the fungicides were formulated as EC formulations, containing 0.1% Trycol 5941 in the spray solutions. Wheat plants (variety Yuma) were grown from seed in a greenhouse in 50% mineral soil/50% soil-less Metro mix until the first leaf was fully emerged, with 7-10 seedlings per pot. These plants were inoculated with an aqueous spore suspension of Septoria tritici either prior to or after fungicide treatments. After inoculation the plants were kept in 100% relative humidity (one day in a dark dew chamber followed by two to three days in a lighted dew chamber at 20° C.) to permit spores to germinate and infect the leaf. The plants were then transferred to a greenhouse set at 20° C. for disease to develop. When disease symptoms were fully expressed on the 1st leaves of untreated plants, infection levels were assessed on a scale of 0 to 100 percent disease severity. Percent disease control was calculated using the ratio of disease severity on treated plants relative to untreated plants. Evaluation of Fungicidal Activity: Leaf Spot of Sugar Beets (Cercospora beticola; Bayer Code CERCBE) Sugar beet plants (variety HH88) were grown in soil-less Metro mix and trimmed regularly to maintain a uniform plant size prior to test. Plants were inoculated with a spore suspension 24 hr after fungicide treatments. Inoculated plants were kept in a dew chamber at 22° C. for 48 hr then incubated in a greenhouse set at 24° C. under a clear plastic hood with bottom ventilation until disease symptoms were fully expressed. Fungicide formulation, application and disease assessment on the sprayed leaves followed the procedures as described in the Example A.

Uncinula necator = experiment: Fungicidal activity: Grape Powdery Mildew (UNCINE); format: in vivo; settings: 100 ppm, 1 DP (1 Day Protectant)
Method: Technical grades of materials were dissolved in acetone, which were then mixed with nine volumes of water containing 110 ppm Triton X-100. The fungicide solutions were applied onto wheat seedlings using an automated booth sprayer to run-off. All sprayed plants were allowed to air dry prior to further handling. All fungicides were evaluated using the aforementioned method for their activity vs. all target diseases, unless stated otherwise. Wheat leaf blotch and brown rust activity were also evaluated using track spray applications, in which case the fungicides were formulated as EC formulations, containing 0.1% Trycol 5941 in the spray solutions. Wheat plants (variety Yuma) were grown from seed in a greenhouse in 50% mineral soil/50% soil-less Metro mix until the first leaf was fully emerged, with 7-10 seedlings per pot. These plants were inoculated with an aqueous spore suspension of Septoria tritici either prior to or after fungicide treatments. After inoculation the plants were kept in 100% relative humidity (one day in a dark dew chamber followed by two to three days in a lighted dew chamber at 20° C.) to permit spores to germinate and infect the leaf. The plants were then transferred to a greenhouse set at 20° C. for disease to develop. When disease symptoms were fully expressed on the 1st leaves of untreated plants, infection levels were assessed on a scale of 0 to 100 percent disease severity. Percent disease control was calculated using the ratio of disease severity on treated plants relative to untreated plants. Evaluation of Fungicidal Activity: Grape Powdery Mildew (Uncinula necator; Bayer code […]) Grape seedlings (variety Carignane) were grown in soil-less Metro mix, with one plant per pot, and used in the test when approximately one month old. Plants were inoculated 24 hr after fungicide treatment by shaking spores from infected leaves over test plants. Plants were maintained in a greenhouse set at 20° C. until disease was fully developed. […]

Venturia inaequalis = experiment: Fungicidal activity: Apple Scab (VENTIN); format: in vivo; settings: 100 ppm, 1 DP (1 Day Protectant)
[2] = test system: Blumeria graminis f. sp. tritici; experiment: Fungicidal activity: Wheat Powdery Mildew (ERYSGT); format: in vivo; settings: 100 ppm, 1 DP (1 Day Protectant)

Row | Structure (SMILES) | PYRIOR disease control rating [1] | melting point [°C] | PHAKPA disease control rating (Phakopsora pachyrhizi) | RHYNSE disease control rating (Rhyncosporium secalis) | CERCBE disease control rating (Cercospora beticola) | UNCINE disease control rating (Uncinula necator) | VENTIN disease control rating (Venturia inaequalis) | ERYSGT disease control rating [2]
1 | COc1ccnc(C(=O)N[C@H]2COC[C@H](Cc3ccccc3)[C@@H](Cc3ccccc3)[C@H](C)OC2=O)c1OCOC(C)=O [Cmpd. 3, ((2-(((3S,7R,8R,9S)-7,8-dibenzyl-9-methyl-2-oxo-1,5-dioxonan-3-yl)carbamoyl)-4-methoxypyridin-3-yl)oxy)methyl acetate] | A (>70) | 56 to 60 | A (>70) | – | – | – | – | –
2 | CCCC[C@@H]1[C@@H](Cc2ccccc2)COC[C@H](NC(=O)c2nccc(OC)c2OCOC(=O)C(C)C)C(=O)O[C@H]1C [compound 1] | A (>70) | – | – | A (>70) | A (>70) | A (>70) | B (≤70) | –
3 | COc1ccnc(C(=O)N[C@H]2COC[C@H](c3ccccc3)[C@@H](c3ccccc3)[C@H](C)OC2=O)c1OCOC(C)=O [compound 7] | A (>70) | 59 to 64 | – | – | A (>70) | A (>70) | – | A (>70)
4 | CCCC[C@@H]1[C@@H](Cc2ccc(C(F)(F)F)cc2)COC[C@H](NC(=O)c2nccc(OC)c2OCOC(C)=O)C(=O)O[C@H]1C [compound 16] | – | – | – | A (>70) | A (>70) | A (>70) | A (>70) | –
5 | COc1ccnc(C(=O)N[C@H]2COC[C@H](Cc3ccccc3)[C@@H](Cc3ccccc3)[C@H](C)OC2=O)c1OC(C)=O [compound 27] | A (>70) | 67 to 71 | – | A (>70) | A (>70) | – | – | –
6 | COc1ccnc(C(=O)N[C@H]2COC[C@H](CC3CC3)[C@@H](c3ccccc3)[C@H](C)OC2=O)c1OC(C)=O [compound 100] | A (>70) | – | – | B (≤70) | A (>70) | – | – | –

Reference: US9955691B2, “Macrocyclic picolinamides as fungicides” (DOW AGROSCIENCES LLC, priority 2014, dated 2018)
